“And” between values parts separate entries of the source, which are not always exact repeats. Identical values can stand only once.
Assays:
[1] = Octanol/saline solubility and partition coefficient, shake-flask technique; settings: for LogPc (octanol-saline partition coefficient): octanol/physiological saline; for LogPc (octanol-saline partition coefficient) / Water mg/ml (solubility in aqueous solution): sodium salts; for Water mg/ml (solubility in aqueous solution): physiological saline as aqueous solution; for Octanol mg/ml (solubility in octanol): sodium salts of the branched fatty acids and their PO4 derivatives
Procedure: The lipophilicity values of various derivatives of branched fatty acids were estimated by comparing the solubility of these compounds in organic versus aqueous solutions. Octanol and physiological saline were used, respectively, as the organic and aqueous solutions. The partition coefficient (Pc) value, i.e. the octanol/saline distribution was measured by the shake-flask technique.

[2] = test system: blood brain barrier (BBB); assay: BBB permeabilization in rats, Evans blue extravasation into brain; assay type: in vivo, Sprague-Dawley rats; settings: for μg EB/g brain (at EC50) / EC50 / MEC (minimal effective concentration): Table 5; for EC50: rat brain, intracarotid infusion, read-out: EC50 (Evans Blue extravasation); for permeabilization of the BBB (FIG. 1, in words): Evans blue extravasation in rat brain, 3,n-type BFAs; for MEC (minimal effective concentration): concentration giving 3 μg EB/g brain; for MEC: Table 8, sodium salt, in µM
From the text: Permeabilization of the BBB by DP-BFA was investigated in rat model system by monitoring accumulation in the brain of two markers: a) Evans blue dye (EB), which rapidly binds in vivo with albumin (NW 70 kD) and is an indicator for paracellular transport; and b) Fluorescein sodium salt (F—Na), MW 376 D, which is transported via the cellular space, and enables monitoring transcellular transport. Upon BBB disruption the Evans blue-albumin complex irreversibly accumulates in the intercellular space of the brain. The much smaller tracer fluorescein may be transported intracellularly to occupy both inter and intracellular space in the brain.
Blood brain barrier permeabilization in Sprague-Dawley rats was induced by brief exposure to DP-BFA. The animals were anesthetized with Rampun-Imalgen and DP-BFA test compounds were administered via the external carotid artery retrograde to the brain (Smith, Q. R. Methods of study. In: Physiology and Pharmacology of the Blood-Brain Barrier. Ed. Bradbury M. W. B. Spinger-Verlag. Berlin-Heidelberg-NY; 1992: 24–52). The pterygo-palathina artery was ligated to avoid escape of infused solutions towards the external head vasculature. DP-BFA solutions were infused over a period of 30 seconds or half an hour, using a Harvard Apparatus Syringe Pump. Blood flow through carotid communis artery was interrupted only at the time of infusion.
All tested DP-BFA molecules were prepared from stock solutions in either water or ethanol by diluting 200–1000 fold into solution of isosmotic mannitol (5%) in Tromethamine buffer (Sigma) or PBS (pH 7.4)
The markers, Evans blue (EB, 25 mg/ml) and fluorescein (F—Na, 12.5 mg/ml), in 1 ml solution, were injected intravenously immediately following administration of the tested DP-BFA, or after a specific time interval if reversibility of action was investigated. Supportive i.v. infusion of F—Na (12.5 mg/ml–100 μl/min) was performed for 8 minutes. Brains were washed with saline solution (60 ml) 10 min after the intracarotid “flash”. Brain ipsilateral and contralateral hemispheres and tumors, where applicable, were homogenized separately with 50% trichloroacetic acid (TCA). The markers concentrations in the cortex and in tumors, where, applicable, were determined spectrofluorometrically (Uyama, O. et al., (1988) J. Cereb. Blood Flow Metab. 8, 282–284: Abraham et al., (1996) Neurosci. Lett. 208, 85–88). The markers content was calculated as μg marker per one-gram brain tissue. Standard error and Student's test for statistical significance were used.
The experiment was carried out on male Sprague-Dawley rats weighing 250–320 g. The procedure described above in Example 17 was followed.
The effect of the tested compounds on the BBB opening was evaluated by two parameters:
a) efficacy—The degree of BBB opening estimated in terms of accumulation of Evans Blue albumin (μg EB/g brain tissue); and
b) potency—measured in terms of EC50 and minimal effective concentration (MEC) values. EC50 is the concentration of a tested compound producing 50% of the maximal effect of Evans Blue extravasation.
The effect of various DP-BFAs on BBB permeability was tested in the model system of rat brains, as described above in Example 17. Efficacy, namely the level of the BBB opening was expressed as the amount of Evans blue accumulated in the brain (μg EB/g brain). Potency of the tested molecules was estimated by their calculated EC50 and minimal effective concentration (MEC) values.

[3] = assay type: in vivo; settings: rats, sodium salt; for LC (minimal concentration that caused death): i.a., viability monitored 24 hours
Procedure: DP-BFA molecules were evaluated for safety and toxicity. Increasing doses of the tested compounds were administered intra-arterially (i.a.) into rats following the protocol described above in Example 17. Animal viability was monitored for 24 hours to evaluate lethal concentrations (LC). LC is defined as the minimal concentration that caused death.
Safety index is defined as the ratio between the lethal dose (LC) and the minimal effective concentration (MEC), wherein MEC corresponds to a calculated concentration of the tested compound that elicits accumulation of three times the amount of Evans blue accumulated in control animals treated with vehicle only, i.e. total accumulation of 3 μg EB. The higher the LC/MEC ratio is, the higher the safety index.

[4] = test system: blood brain barrier (BBB); assay: BBB permeability to EB-albumin and Fluorescein in normal rat brains; assay type: in vivo; settings: compounds at EC50 (Mannitol 25%); for Ratio F-Na/EB (mean of individual ratios): control 9.5 ± 1.6
From the text: The effect of various DP-BFAs on BBB permeabilization to molecules of different sizes was examined in vivo in the model system of normal rat brains.
The transport of two markers was followed: a) Evans blue bound to albumin (MW 70 kD) as an indicator for paracellular transport; and b) Fluorescein sodium salt (MW 376 D) that represents small size molecules.
The Evans blue dye (EB) and Fluorescein sodium salt (F—Na) were infused into the artery carotis externa over 30 seconds according to the protocol described above in Example 17. The test compounds were used at their EC50 concentrations. Control animals were treated with vehicle solution.
Evans blue extravasation is expressed as the percentage of the total amount of EB accumulated per one gram of brain tissue. The transport of fluorescein into the brain, which is dependent on the serum concentration of this molecule, is presented as percentage of the F—Na level in the serum.

[5] = test system: blood tumor barrier (BTB) of C6 glioma; assay: BTB opening in C6 glioma-bearing rats, Evans blue accumulation in tumor; assay type: in vivo, Sprague Dawley rats; settings: for EC50: C6 glioma-bearing rats; for BTB EB μg/g Tumor: concentrations around EC50 (Mannitol 25%), unilateral 30 s infusion; for Specificity Tumor/Non-tumor (T/NT): ratio of EB accumulated in tumor and non-tumor brain
Procedure: (§1) In order to study the ability of DP-BFA compounds to modulate blood tumor barrier (BTB), a model system of C6 glioma-bearing rats, was employed.
(§2) Sprague Dawley (SD) rats were inoculated with C6 gliosarcoma cells following the procedure described by Bartus et al. (Exp Neurol (1996); 142:14–28). A small burr-hole was made in the frontal scalp bone of the rat fixed in a stereotaxis apparatus. Using a Hamilton syringe, 10 μl or 5 μl of media, containing 2.5×10^5 C6 gliosarcoma cells were inoculated into the frontal cortex. Coordinates were 1 mm posterior of bregma, 2.5 mm—lateral, and 3 mm—depth. The needle remained in the place for 5 min. After removal of the needle, fascia and scalp were sutured. The rats were checked 6–8 days after inoculation, when tumors of sufficient size (20–60 mg) had developed. The tumor was weighed after F—Na visualization and dissection. Parts of the rats' brains were subject to histological examinations and monitored for Evans Blue and Fluorescein uptake into ipsilateral tumour tissue, peritumoural tissue and contralateral tissue.
(§3) The bilateral tumor model system of C6 glioma-bearing rats described in Example 23 above was employed for screening of various derivatives of DP-BFA for their ability to permeabilize the blood brain barrier (BBB) in comparison to their effect on the blood tumor barrier (BTB). The experimental procedure described in Example 23 was followed except that the tumor-bearing rats were further treated with DP-BFA. The tested compounds, at concentrations around their EC50 values, were unilaterally infused into the external carotis artery over 30 seconds as described in Example 17. Animals treated with vehicle only serve as a control group. Permeabilization effect was quantitated by measuring accumulation of albumin bound Evans blue dye in tumor (T) versus non-tumor (NT) tissues.
(§4) Specificity index is defined as the ratio between the levels of EB accumulated in tumor and those accumulated in non-tumor brain tissues (T/NT).

[6] = test system: blood brain barrier (BBB); assay: BBB opening in C6 glioma-bearing rats, Evans blue accumulation in non-tumor brain; assay type: in vivo, Sprague Dawley rats; settings: concentrations around EC50 (Mannitol 25%), unilateral 30 s infusion
Procedure: as §1, §2, §3, §4

Molecule: CCCCCCCCCCCCC(CCC)OCCOCCOP(=O)(O)O (stereo not shown) [3,12-(ether)-DEG-PO4, 2-(4′-Hexadecanyloxy)ethoxyethyl phosphate]
- LogPc (octanol-saline partition coefficient) [1]: 0.83
- Water mg/ml (solubility in aqueous solution) [1]: >5 mg/mL
- Octanol mg/ml (solubility in octanol) [1]: >5 mg/mL

Molecule: CCCCCCCC(CCC)C(=O)[O-].[Na+] (stereo not shown) [3,7-Na, reference compound]
- μg EB/g brain (at EC50) [2]: 0.8 μg EB/g brain
- EC50 [2]: > 450 µM

Molecule: CCCCCCCCCCCCCCCCC(CCC)C(=O)[O-].[Na+] (stereo not shown) [3,16-Na, reference compound]
- permeabilization of the BBB (FIG. 1, in words) [2]: active
- MEC (minimal effective concentration) [2]: 18 ± 2
- EC50 [2]: 137 ± 17 µM
- MEC [2]: 18 ± 2
- LC (minimal concentration that caused death) [3]: 431 ± 55 µM
- Safety LC/MEC [3]: 23.9
- LogPc (octanol-saline partition coefficient) [1]: 1.26
- Water mg/ml (solubility in aqueous solution) [1]: 9.4 mg/mL
- Octanol mg/ml (solubility in octanol) [1]: >20 mg/mL

Molecule: CCCCCCCCCCC(CCC)C(=O)[O-].[Na+] (stereo not shown) [3,10-Na, reference compound]
- μg EB/g brain (at EC50) [2]: 08 μg EB/g brain
- EC50 [2]: ~700 µM

Molecule: 4-Hexadecanyl Phosphate [3,12-PO4]
- MEC [2]: 3.3 ± 0.5
- Ratio F-Na/EB (mean of individual ratios) [4]: 5.9
- LC (minimal concentration that caused death) [3]: 63 ± 12 µM
- Safety LC/MEC [3]: 19.1
- EC50 [5]: 10 ± 2 µM
- BTB EB μg/g Tumor [5]: 14 ± 6 µg/g
- Specificity Tumor/Non-tumor (T/NT) [5]: 6.3 ± 1.3
- BBB EB μg/g Non-tumor brain [6]: 2.5 ± 1.5 µg/g
- LogPc (octanol-saline partition coefficient) [1]: 1.9
- Water mg/ml (solubility in aqueous solution) [1]: >2.5 mg/mL
- Octanol mg/ml (solubility in octanol) [1]: <5 mg/mL

Molecule: 4-Octadecyl phosphate [3,14-PO4]
- MEC [2]: 6.2 ± 0.9
- LC (minimal concentration that caused death) [3]: 134 ± 18 µM
- Safety LC/MEC [3]: 21.6

Molecule: CCCCCCCCCCCCCCC(CCC)C(=O)[O-].[Na+] (stereo not shown) [3,14-Na, reference compound]
- permeabilization of the BBB (FIG. 1, in words) [2]: active
- μg EB/g brain (at EC50) [2]: 16.5 ± 2.5 μg EB/g brain
- MEC (minimal effective concentration) [2]: 9.1 ± 12
- EC50 [2]: 40 ± 5 µM
- MEC [2]: 9.1 ± 1.2
- % EB/g brain ([4]; control 0.04 ± 0.01): 0.8 ± 0.07%
- Brain fluorescein uptake (% of serum F-Na level) ([4]; control 0.3 ± 0.08): 3.8 ± 0.5 % of the F—Na level in the ser
- Ratio F-Na/EB (mean of individual ratios) [4]: 4.7 and 4.7 ± 1.7
- LC (minimal concentration that caused death) [3]: 78 ± 11 µM
- Safety LC/MEC [3]: 8.6
- LogPc (octanol-saline partition coefficient) [1]: 1.26
- Water mg/ml (solubility in aqueous solution) [1]: >10 mg/mL
- Octanol mg/ml (solubility in octanol) [1]: >20 mg/mL

Molecule: CCCCCCCC(CCCCCCC)OP(=O)(O)O [7,7-PO4, 8-Pentadecyl phosphate]
- LogPc (octanol-saline partition coefficient) [1]: <5
- Water mg/ml (solubility in aqueous solution) [1]: >10 mg/mL
- Octanol mg/ml (solubility in octanol) [1]: >10 mg/mL

Molecule: 4-Hexadecanoyloxyethyl phosphate [3,12-MEG-PO4]
- MEC [2]: 11 ± 2
- LC (minimal concentration that caused death) [3]: 80 ± 15 µM
- EC50 [5]: 22 ± 3 µM
- BTB EB μg/g Tumor [5]: 25 ± 3 µg/g
- Specificity Tumor/Non-tumor (T/NT) [5]: 1.2 ± 0.2
- BBB EB μg/g Non-tumor brain [6]: 21 ± 4 µg/g
- LogPc (octanol-saline partition coefficient) [1]: 1.09
- Water mg/ml (solubility in aqueous solution) [1]: >10 mg/mL
- Octanol mg/ml (solubility in octanol) [1]: >10 mg/mL

Reference: patent publication US7186703B2, “Derivatives of branched-chain lipophilic molecules and uses thereof” (D-Pharm Ltd., priority 2000, dated 2007)
